This is an account of results in patent publication US5089476A, “Glutamic acid derivatives” (Roussel Uclaf, priority 1987, dated 1992).

Common to all, as to type: cell-based, human
The subject of assay [1] is interleukin-1 (IL-1) production by monocytes. As to the kind of experiment: Interleukin-1 (IL-1) test on monocyte culture supernatants (mouse thymocyte co-mitogenic bioassay). Conditions: thymidine incorporation by C3H/HeJ mouse thymocytes with PHA. The method, then:
The mononuclear cells of the circulating blood of normal donors were separated by the classical technique described by Boyum using a Ficoll gradient. After being washed, the mononuclear cells were incubated at 37° C. for 1 hour in the proportion of 5×10^6 monocytes (NSE^+ cells) per ml of culture medium, 5 ml per culture bottle. The culture medium used in this experiment was composed of RPMI 1640 to which antibiotics and HEPES buffer had been added. After one hour, the non-adherent cells were removed by washing the bottles with medium previously brought to 37 C, and the adherent cells, composed essentially of monocytes (>90%), were cultured again in the presence of different amounts of test products in a PBS medium (Dulbecco) without Ca^2+ or Mg^2+. Culturing was continued for 24 or 48 hours and the cell supernatants were then withdrawn, centrifuged, aliquoted and stored either at -80° C. or at -20° C. The culture supernatants were replaced in the bottles by the same amount of pyrogen-free distilled water to Lyse the cells. […]
This test was first described by Gery et al in 1972 [Gery et al, 1972 Potentiation of the T Lymphocyte response to mitogens. […] The results were expressed as the difference between the pulses per minute incorporated by the cultures in the presence of supernatants and the pulses per minute incorporated by the control cultures.

In a further assay the test system is monocytes. Put plainly: Stimulation of monocytic cells with an immunostimulant. Conditions: for stimulation of monocytes: adherent blood monocytes of normal donors, cultured 24 or 48 hours with test product; for synergy with interferon-γ: in the presence of interferon-γ 10^3 U/ml, a dose at which IFN-γ alone was inactive. How it is done:
The mononuclear cells of the circulating blood of normal donors were separated by the classical technique described by Boyum using a Ficoll gradient. After being washed, the mononuclear cells were incubated at 37° C. for 1 hour in the proportion of 5×10^6 monocytes (NSE^+ cells) per ml of culture medium, 5 ml per culture bottle. The culture medium used in this experiment was composed of RPMI 1640 to which antibiotics and HEPES buffer had been added. After one hour, the non-adherent cells were removed by washing the bottles with medium previously brought to 37 C, and the adherent cells, composed essentially of monocytes (>90%), were cultured again in the presence of different amounts of test products in a PBS medium (Dulbecco) without Ca^2+ or Mg^2+. Culturing was continued for 24 or 48 hours and the cell supernatants were then withdrawn, centrifuged, aliquoted and stored either at -80° C. or at -20° C. The culture supernatants were replaced in the bottles by the same amount of pyrogen-free distilled water to Lyse the cells. The Lysate was recovered, aliquoted and also stored at -20° C.

In assay [2] the test system is tumor necrosis factor (TNF) production by monocytes. As to the kind of experiment: Tumor Necrosis Factor (TNF) test on monocyte culture supernatants (toxicity on L-929 target cells). Particulars: toxicity on L-929 cells with actinomycin D. The method, then: The mononuclear cells of the circulating blood of normal donors were separated by the classical technique described by Boyum using a Ficoll gradient. After being washed, the mononuclear cells were incubated at 37° C. for 1 hour in the proportion of 5×10^6 monocytes (NSE^+ cells) per ml of culture medium, 5 ml per culture bottle. The culture medium used in this experiment was composed of RPMI 1640 to which antibiotics and HEPES buffer had been added. After one hour, the non-adherent cells were removed by washing the bottles with medium previously brought to 37 C, and the adherent cells, composed essentially of monocytes (>90%), were cultured again in the presence of different amounts of test products in a PBS medium (Dulbecco) without Ca^2+ or Mg^2+. Culturing was continued for 24 or 48 hours and the cell supernatants were then withdrawn, centrifuged, aliquoted and stored either at -80° C. or at -20° C. The culture supernatants were replaced in the bottles by the same amount of pyrogen-free distilled water to Lyse the cells. The Lysate was recovered, aliquoted and also stored at -20° C. […]
The technique was sensitized by adding actinomycin D to the test. […] After 24 hours of culturing, the number of unlysed viable cells was measured by staining the plates with crystal violet and measuring the optical density of different wells on a multiscan reader.

Take `C=C(CC(N)C(=O)O)CC(NC(=O)CC[C@@H](N)C(=O)O)C(=O)O` (stereo partly drawn) [Example 1, 2-amino-6-(γ-D-glutamylamino)-4-methylene-heptanedioic acid]: in assay [1], the “IL-1 production by monocytes” value was “stimulated”. For the same molecule, in the assay on monocytes, the stimulation of monocytes result is reported as “stimulated monocytes” and the “synergy with interferon-γ” value is “synergy”. Besides, the “TNF production by monocytes” value in assay [2] is listed as “stimulated”.

Take `C=C(CC(NC(=O)CC[C@@H](N)C(=O)O)C(=O)O)CC(NC(=O)[C@H](C)N)C(=O)O` (stereo partly drawn) [Example 2, 2-(L-Alanylamino)-6-(γ-D-glutamylamino)-4-methyleneheptanedioic acid]: the “IL-1 production by monocytes” value in assay [1] is on record as “stimulated”. Moreover, in the assay on monocytes, the stimulation of monocytes result is “stimulated monocytes” and the “synergy with interferon-γ” value was “synergy”. Also, the “TNF production by monocytes” value in assay [2] is “stimulated”.

B1: IFN-γ: interferon-γ (10^3 U/ml) added to monocyte cultures to test synergy (protein, UniProt P01579 24-161, looked up)
Interferon gamma: QDPYVKEAENLKKYFNAGHSDVADNGTLFLGILKNWKEESDRKIMQSQIVSFYFKLFKNFKDDQSIQKSVETIKEDMNVKFFNSNKKKRDDFEKLTNYSVTDLNVQRKAIHELIQVMAELSPAAKTGKRKRSQMLFRG
Regarding B1, the “activity of IFN-γ alone” value in the assay on monocytes (interferon-γ 10^3 U/ml alone) was “inactive”.
